Data taken from ChEMBL document CHEMBL1811818, “Arthrobotrisins A-C, oligosporons from the nematode-trapping fungus Arthrobotrys oligospora” (2011).
Calls of active or inactive are those of the source. The calls are words filed in the database; no cut-off is given here.

Experiments:
Bacillus subtilis [1] = experiment: Antibacterial activity against Bacillus subtilis 3.34 at 25 ug by agar diffusion assay; assay type: functional; settings: read-out: IZ
Bacillus subtilis [2] = experiment: Antibacterial activity against Bacillus subtilis 3.34 at 50 ug by agar diffusion assay; assay type: functional; settings: read-out: IZ
Bacillus subtilis [3] = experiment: Antibacterial activity against Bacillus subtilis 3.34 assessed as by agar diffusion assay; assay type: functional
Bacillus sp. [4] = experiment: Antibacterial activity against Bacillus sp. 3.38 at 50 ug by agar diffusion assay; assay type: functional; settings: Bacillus sp. (in: firmicutes), read-out: DIZ
Staphylococcus aureus = experiment: Antibacterial activity against Staphylococcus aureus 3.17 at 50 ug by agar diffusion assay; assay type: functional; settings: read-out: DIZ
Panagrellus redivivus = experiment: Nematicidal activity against Panagrellus redivivus assessed as effect on larval development at 200 ug/mL after 48 hrs; assay type: functional, organism-based
Bacillus subtilis [5] = experiment: Antibacterial activity against Bacillus subtilis 3.34 at 10 ug by agar diffusion assay; assay type: functional; settings: read-out: DIZ
Bacillus sp. [6] = experiment: Antibacterial activity against Bacillus sp. 3.38 at 150 ug by agar diffusion assay; assay type: functional; settings: Bacillus sp. (in: firmicutes), read-out: IZ
Bacillus sp. [7] = experiment: Antibacterial activity against Bacillus sp. 3.38 at 300 ug by agar diffusion assay; assay type: functional; settings: Bacillus sp. (in: firmicutes), read-out: IZ

Work on CC(C)=CCC/C(C)=C/C[C@H](O)/C(C)=C/[C@H](O)[C@]12O[C@H]1[C@@H](O)C(CO)=C[C@@H]2O [ARTHROBOTRISIN C] yielded a zone of inhibition at 25 µg/disc (Bacillus subtilis [1]) of 14.2 mm, a zone of inhibition at 50 µg/disc (Bacillus subtilis [2]) of 19.4 mm and an MIC (Bacillus subtilis [3]) of 5 µg. The zone of inhibition at 50 µg/disc (Bacillus sp. [4]) was 9.1 mm, the zone of inhibition at 50 µg/disc (Staphylococcus aureus) was 7 mm and the Activity (Panagrellus redivivus) was “inactive”.

For O=C(N[C@H](CO)[C@H](O)c1ccc([N+](=O)[O-])cc1)C(Cl)Cl [CHLORAMPHENICOL], the zone of inhibition at 10 µg/disc (Bacillus subtilis [5]) was 36.3 mm.

With CC(C)=CCC/C(C)=C/C[C@H](O)/C(C)=C/[C@H](O)[C@]12O[C@H]1[C@H](O)C(CO)=C[C@@H]2O [ARTHROBOTRISIN B] the zone of inhibition at 150 µg/disc (Bacillus sp. [6]) was 4.7 mm, the zone of inhibition at 300 µg/disc (Bacillus sp. [7]) was 8 mm and the Activity (Panagrellus redivivus) was “inactive”.
